Test results taken from patent publication US20200214296A1, “MICROBICIDAL COMPOSITION” (DDP Specialty Electronic Materials US, Inc., priority 2017, published 2020).

Experiments:
[1] = system: Pseudomonas aeruginosa & E. coli mix; experiment: Synergy in the planktonic phase, biocide challenge with resazurin regrowth readout; type: cell-based, Pseudomonas aeruginosa (DSM: 50071) and E. coli (DSM: 1576); settings: P. aeruginosa/E. coli, after 48 hours, phosphate buffer pH 7.3, used alone
Protocol: Pseudomonas aeruginosa (DSM: 50071) and E. coli (DSM: 1576) cultures were separately prepared from glycerol stocks; first they were streak plated and validated with a microscope. Single colonies were picked and shake flasks were inoculated and left overnight at 37° C. (TSB medium) to produce the initial inoculum. The challenge block (a 96 wells plate) was prepared using phosphate buffer at pH 7.3, (0.0027M potassium chloride, 0.137 M sodium chloride). The Biocide challenging was done at 30° C. Inoculation took place at the start of the experiments and after 48 hours a re-inoculation was done. Challenging was monitored up to 7 days in total. In Table 1, the concentrations used for the synergy experiments are listed. Each experiment was done in triplicate. […] The recovery plates were subsequently read (checked for microbial growth) at 24 and 48 hours after addition of the culture. Plate reading took place twice for each time point, to look at potential changes. Reading took place utilizing separate 96 wells plates pre filled with fresh media. […] This was done in triplicate for each point (the triplicate is already present in the biocide block viz. each point is truly determined in triplicate). […] Ranking was done per average value of three data points determined per experiment. (Recorded in log regrowth). […]

Thermus thermophilus = experiment: as above; type: cell-based, Thermus thermophilus (DSM: 579)
Protocol: The inoculum prepared added between to 1*10^8 to 1*10^9 total cells/ml (in each well). At several timepoints 20 microliter aliquots of each treatment (well) were added to 96 well plates with TSB+Resazurin. These 96 well plates were filled with 'recovery' media (TSB 30 grams/liter). One of such plates was prepared for each column of the assay block. 180 μl recovery media was added to each well of a 96 well plate, except for column 1 of the recovery plate. This column was filled with 180 μl of one column of the assay block. The last three columns on the recovery plate were not pipetted. These columns represented the no template control for verifying proper plate set up and data reliability. […] The recovery plates were subsequently read (checked for microbial growth) at 24 and 48 hours after addition of the culture. Plate reading took place twice for each time point, to look at potential changes. Reading took place utilizing separate 96 wells plates pre filled with fresh media. […] This was done in triplicate for each point (the triplicate is already present in the biocide block viz. each point is truly determined in triplicate). […] Ranking was done per average value of three data points determined per experiment. (Recorded in log regrowth). […]

[2] = system: Pseudomonas aeruginosa biofilm; experiment: Biofilm dissipation synergy on MBEC plate pegs; type: cell-based; settings: P. aeruginosa biofilm, 24 hour contact time, 5 day regrowth; pass = total eradication of the biofilm
Protocol: One measure of synergism is the industrially accepted method described by Kull, […]. and Mayer, R. L., in Applied Microbiology 9:538-541 (1961), using the ratio determined by the formula: Qa/QA+Qb/QB=Synergy Index (“SI”) […] A Pseudomonas aeruginosa culture was prepared from glycerol stocks. First, the culture was streak plated. Single colonies were selected and shake flasks were inoculated and left overnight at 37° C. (TSB medium). The culture was diluted in phosphate buffer pH 7.3 1:1000000 prior to set up the biofilm plate Biofilm was developed overnight on P&G MBEC plates. The 96 well plates were covered with the lid holding the pegs partially submerged in the growth media. Biofilm was developed on the pegs leading to a total cell amount of 7*10^10 cells per peg. The top plates (with the pegs) were then subsequently washed and then placed into a 96 well challenge plate with the biocidal components in the given amounts. […] The contact time of the biofilms with the microbicidal mix was 24 hours. After the challenging, the biofilms were gently washed, sonicated from the pegs into recovery media (TSB 30 g/l, with resazurin, 0.01%), from these wells directly after sonication 10× dilution series were made on separate plates. These were left to recover for 3 to 5 days at 30° C. […] It could then be back-calculated how many cells remained after challenging of the biofilm with biocides. […]

O=CC=O [Glyoxal, glyoxal]
Glyoxal standalone 48 h pass [1]: ≥2000 ppm | Glyoxal standalone 48 h pass (Thermus thermophilus; T. thermophilus, planktonic, after 48 hours, 60° C., standard ocean matrix salinity 2%, used alone): 40 ppm | Sensitivity of Thermus thermophilus vs. Pseudomonas aeruginosa and E. coli (Thermus thermophilus; comparison in words, footnote of Table 2): more sensitive | Glyoxal (standalone pass) [2]: 1280 ppm
